# Results reported in US20150176022A1, “HERBICIDE-RESISTANT SUNFLOWER PLANTS, POLYNUCLEOTIDES ENCODING HERBICIDE=RESISTANT ACETO HYDROXY ACID SYNTHASE LARGE SUBUNIT PROTEINS, AND METHODS OF USE” (priority 2013, published 2015).
# What was measured:
# Assay type in all cases: in vivo, Helianthus annuus
# [1] = system: A122T versus A205V sunflower genotypes; experiment: Greenhouse whole-plant imazapir dose response (Example 8), difference between mutants; conditions: difference of group means, 14 DAT
# Procedure: (§1) A greenhouse study was conducted to quantify and contrast the imazapir sensitivity of the mutants A122T and A205V in different genetic backgrounds at the whole plant level in sunflower. Seeds of the different sunflower lines that were used in this study were obtained under field conditions.
# (§2) Seeds were sown in Petri dishes and, after germination, plantlets were transplanted to pots of 10 cm of diameter in a potting media consisting of equal parts of vermiculite, soil and sand. Plants were grown in a greenhouse under natural light conditions supplemented with 400 W sodium halide lamps to provide a 16 hrs daylength. Day/night temperatures were 25 and 20° C., respectively. At the V2 stage 10 plants of each genotype were randomly assigned to each treatment consisting of […] imazapir doses (0, 40, 80, 160, 240, 320, 400 and 480 g ai/ha), and a zero-time biomass determination. Experiment was arranged as a randomized block design with a full factorial (sunflower line×treatment) arrangement of treatments and 10 replications.
# (§3) On the day of herbicide application ten plants of each genotype were cut at the cotyledonal node and dried at 60° C. for 48 hrs zero-time for dried weight determination. […] Height was determined as the distance between the cotyledonal node and the apex of each plant. For root biomass determination, each plant was taken from the pot and the potting media was washed out from the roots. Above ground biomass data from each line were converted to biomass accumulation after application by subtracting the appropriate average zero-time biomass from each sample. Dry biomass data were converted to percentages of the untreated control plants within each line to allow direct comparisons between groups.
# [2] = system: sunflower TH9 (Hybrid, A205V); experiment: Greenhouse whole-plant imazapir dose response (Example 8); conditions: 14 DAT
# Procedure: as §1, §2, §3
# [3] = system: sunflower IR79 (Restorer Line, A205V); experiment: as above; conditions: 14 DAT
# Procedure: as §1, §2, §3
compound,measurement,setting,value
"CC(C)C1(C)N=C(c2ncccc2C(=O)O)NC1=O (stereo not drawn) [imazapir, imazapyr]","Phytotoxicity Index, Dif A205V-A122T",[1]; 0.5× (40 g ai/ha),−0.29
same,"biomass, Dif A122T-A205V",[1]; 0.5× (40 g ai/ha),4.3%
same,"plant height, Dif A122T-A205V",[1]; 0.5× (40 g ai/ha),4.9%
same,"root dry weight, Dif A122T-A205V",[1]; 0.5× (40 g ai/ha),12.7%
same,"Phytotoxicity Index, Dif A205V-A122T",[1]; 1× (80 g ai/ha),−0.29
same,"biomass, Dif A122T-A205V",[1]; 1× (80 g ai/ha),14.5%
same,"plant height, Dif A122T-A205V",[1]; 1× (80 g ai/ha),9.4%
same,"root dry weight, Dif A122T-A205V",[1]; 1× (80 g ai/ha),26.7%
same,"Phytotoxicity Index, Dif A205V-A122T",[1]; 2× (160 g ai/ha),1.87
same,"biomass, Dif A122T-A205V",[1]; 2× (160 g ai/ha),33.2%
same,"plant height, Dif A122T-A205V",[1]; 2× (160 g ai/ha),28.0%
same,"root dry weight, Dif A122T-A205V",[1]; 2× (160 g ai/ha),43.6%
same,"Phytotoxicity Index, Dif A205V-A122T",[1]; 3× (240 g ai/ha),4.81
same,"biomass, Dif A122T-A205V",[1]; 3× (240 g ai/ha),45.3%
same,"plant height, Dif A122T-A205V",[1]; 3× (240 g ai/ha),45.3%
same,"root dry weight, Dif A122T-A205V",[1]; 3× (240 g ai/ha),50.2%
same,"Phytotoxicity Index, Dif A205V-A122T",[1]; 4× (320 g ai/ha),6.92
same,"biomass, Dif A122T-A205V",[1]; 4× (320 g ai/ha),52.4%
same,"plant height, Dif A122T-A205V",[1]; 4× (320 g ai/ha),59.9%
same,"root dry weight, Dif A122T-A205V",[1]; 4× (320 g ai/ha),50.3%
same,"Phytotoxicity Index, Dif A205V-A122T",[1]; 5× (400 g ai/ha),7.38
same,"biomass, Dif A122T-A205V",[1]; 5× (400 g ai/ha),46.9%
same,"plant height, Dif A122T-A205V",[1]; 5× (400 g ai/ha),57.8%
same,"root dry weight, Dif A122T-A205V",[1]; 5× (400 g ai/ha),47.9%
same,"Phytotoxicity Index, Dif A205V-A122T",[1]; 6× (480 g ai/ha),7.03
same,"biomass, Dif A122T-A205V",[1]; 6× (480 g ai/ha),44.6%
same,"plant height, Dif A122T-A205V",[1]; 6× (480 g ai/ha),54.0%
same,"root dry weight, Dif A122T-A205V",[1]; 6× (480 g ai/ha),37.3%
same,Phytotoxicity Index,[2]; 0.5× (40 g ai/ha),0
same,"biomass accumulation (dry biomass, % of untreated)",[2]; 0.5× (40 g ai/ha),91.7%
same,plant height (% of untreated),[2]; 0.5× (40 g ai/ha),100.0%
same,root dry weight (% of untreated),[2]; 0.5× (40 g ai/ha),81.5%
same,Phytotoxicity Index,[2]; 1× (80 g ai/ha),0
same,"biomass accumulation (dry biomass, % of untreated)",[2]; 1× (80 g ai/ha),81.7%
same,plant height (% of untreated),[2]; 1× (80 g ai/ha),100.0%
same,root dry weight (% of untreated),[2]; 1× (80 g ai/ha),84.9%
same,Phytotoxicity Index,[2]; 2× (160 g ai/ha),1.6
same,"biomass accumulation (dry biomass, % of untreated)",[2]; 2× (160 g ai/ha),54.7%
same,plant height (% of untreated),[2]; 2× (160 g ai/ha),78.9%
same,root dry weight (% of untreated),[2]; 2× (160 g ai/ha),58.8%
same,Phytotoxicity Index,[2]; 3× (240 g ai/ha),5.1
same,"biomass accumulation (dry biomass, % of untreated)",[2]; 3× (240 g ai/ha),35.7%
same,plant height (% of untreated),[2]; 3× (240 g ai/ha),50.0%
same,root dry weight (% of untreated),[2]; 3× (240 g ai/ha),34.1%
same,Phytotoxicity Index,[2]; 4× (320 g ai/ha),8.4
same,"biomass accumulation (dry biomass, % of untreated)",[2]; 4× (320 g ai/ha),25.3%
same,plant height (% of untreated),[2]; 4× (320 g ai/ha),38.1%
same,root dry weight (% of untreated),[2]; 4× (320 g ai/ha),27.3%
same,Phytotoxicity Index,[2]; 5× (400 g ai/ha),8.9
same,"biomass accumulation (dry biomass, % of untreated)",[2]; 5× (400 g ai/ha),19.8%
same,plant height (% of untreated),[2]; 5× (400 g ai/ha),31.8%
same,root dry weight (% of untreated),[2]; 5× (400 g ai/ha),29.9%
same,Phytotoxicity Index,[2]; 6× (480 g ai/ha),8.9
same,"biomass accumulation (dry biomass, % of untreated)",[2]; 6× (480 g ai/ha),19.5%
same,plant height (% of untreated),[2]; 6× (480 g ai/ha),34.7%
same,root dry weight (% of untreated),[2]; 6× (480 g ai/ha),22.1%
same,"biomass accumulation (dry biomass, % of untreated)",[3]; 0.5× (40 g ai/ha),94.4%
same,plant height (% of untreated),[3]; 0.5× (40 g ai/ha),92.8%
same,root dry weight (% of untreated),[3]; 0.5× (40 g ai/ha),98.6%
same,"biomass accumulation (dry biomass, % of untreated)",[3]; 1× (80 g ai/ha),74.0%
same,plant height (% of untreated),[3]; 1× (80 g ai/ha),80.9%
same,root dry weight (% of untreated),[3]; 1× (80 g ai/ha),53.4%
same,"biomass accumulation (dry biomass, % of untreated)",[3]; 2× (160 g ai/ha),67.7%
same,plant height (% of untreated),[3]; 2× (160 g ai/ha),74.9%
same,root dry weight (% of untreated),[3]; 2× (160 g ai/ha),42.5%
same,"biomass accumulation (dry biomass, % of untreated)",[3]; 3× (240 g ai/ha),49.1%
